Laboratory results taken from patent US11834483B2, “Immunostimulatory agents in combination with angiogenesis inhibitors” (Alkermes Pharma Ireland Limited, priority 2020, dated 2023).
Read-outs that look alike come from different tables or passages of the source.

B1: fusion protein of SEQ ID NO: 1: circularly permuted (cp) IL-2 variant fused to the extracellular domain of the IL-2Rα portion of the IL-2 receptor (protein)
chain: SKNFHLRPRDLISNINVIVLELKGSETTFMCEYADETATIVEFLNRWITFSQSIISTLTGGSSSTKKTQLQLEHLLLDLQMILNGINNYKNPKLTRMLTFKFYMPKKATELKHLQCLEEELKPLEEVLNLAQGSGGGSELCDDDPPEIPHATFKAMAYKEGTMLNCECKRGFRRIKSGSLYMLCTGNSSHSSWDNQCQCTSSATRNTTKQVTPQPEEQKERKTTEMQSPMQPVDQASLPGHCREPPPWENEATERIYHFVVGQMVYYQCVQGYRALHRGPAESVCKMTHGKTRWTQPQLICTG
modifications: Human cpIL-2IL-2R-alpha
notes: circularly permuted (cp) IL-2 variant fused to the extracellular domain of the IL-2Rα portion of the IL-2 receptor

Columns and labels:
[1] = system: CD8+ T cells, macrophages, dendritic cells; assay: Immune cells in tumors and spleens of treated mice; assay type: in vivo
Excerpt: The combination therapy of the invention provides many beneficial and unexpected therapeutic effects as evidenced by mice treated with SEQ ID NO: 2, the murine surrogate for SEQ ID NO: 1.

[2] = system: MC38 murine colon carcinoma cells; conditions: for Median TTE: endpoint 1000 mm^3, 53 days; for Regressions CR: number of complete regressions; for Regressions PR: number of partial regressions; for Regressions TFS: tumor free survivors
[3] = system: CD8+T cells, NK cells, Tregs; conditions: first in human clinical data, U.S. Patent Publication Number 20210038684A1; cited from earlier work
[4] = Group 2: Lenvatinib 10 mg/kg po qd × 28 (vehicle 1 sc)
[5] = Group 2: Lenvatinib 10 mg/kg po qd × 28
[6] = Group 3: Lenvatinib 30 mg/kg po qd × 28 (vehicle 1 sc)
[7] = Group 3: Lenvatinib 30 mg/kg po qd × 28
[8] = Group 4: Lenvatinib 100 mg/kg po qd × 28 (vehicle 1 sc)
[9] = Group 4: Lenvatinib 100 mg/kg po qd × 28

Row | Molecule | macrophages [1] | % TGD [2, 4] [%] | T − C [2, 4] [days] | Median TTE [2, 4] [days] | Regressions CR [2, 5] | Regressions PR [2, 5] | Regressions TFS [2, 5] | % TGD [2, 6] [%] | T − C [2, 6] [days] | Median TTE [2, 6] [days] | Regressions CR [2, 7] | Regressions PR [2, 7] | Regressions TFS [2, 7] | % TGD [2, 8] [%] | T − C [2, 8] [days] | Median TTE [2, 8] [days] | Regressions CR [2, 9] | Regressions PR [2, 9] | Regressions TFS [2, 9] | expansion of CD8+T cells and NK cells versus Tregs [3]
1 | COc1cc2nccc(Oc3ccc(NC(=O)NC4CC4)c(Cl)c3)c2cc1C(N)=O [Lenvatinib, 4-[3-Chloro-4-(cyclopropylaminocarbonyl)aminophenoxy]-7-methoxy-6-quinolinecarboxamide] | decrease in macrophages | 168 | 24.0 | 38.3 | 0 | 1 | 0 | 162 | 23.1 | 37.4 | 0 | 0 | 0 | 164 | 23.4 | 37.7 | 0 | 0 | 0 | –
2 | B1 | – | – | – | – | – | – | – | – | – | – | – | – | – | – | – | – | – | – | – | activates expansion of CD8+T cells and NK cells in a dose dependent manner in the absence of dose dependent activation of Tregs
